{"source": "patent US20170259275A1", "about": "“PROCESS FOR SEPARATING AMINO AND/OR ORGANIC ACID-CONTAINING PARTICLES FROM A MIXTURE” (Sanovations B.V., priority 2014, published 2017)", "origin": "cited, not measured here", "key": {"[1]": {"conditions": "25° C., water"}, "[2]": {"conditions": "solid, crystalline form"}}}
{"molecule": "C[C@H](N)C(=O)O", "note": "[Alanine]", "values": [{"measurement": "Aqueous Solubility", "setting": "[1]", "result": 16.65, "unit": "g/100 g"}, {"measurement": "Crystal Density", "setting": "[2]", "result": 1.371, "unit": "g/mL"}]}
{"molecule": "N=C(N)NCCC[C@H](N)C(=O)O", "note": "[Arginine]", "values": [{"measurement": "Crystal Density", "setting": "[2]", "result": 1.325, "unit": "g/mL"}]}
{"molecule": "NC(=O)C[C@H](N)C(=O)O", "note": "[Asparagine]", "values": [{"measurement": "Aqueous Solubility", "setting": "[1]", "result": 3.53, "unit": "g/100 g"}]}
{"molecule": "N[C@@H](CC(=O)O)C(=O)O", "note": "[Aspartic Acid]", "values": [{"measurement": "Crystal Density", "setting": "[2]", "result": 1.636, "unit": "g/mL"}]}
{"molecule": "N[C@@H](CS)C(=O)O", "note": "[Cysteine]", "values": [{"measurement": "Aqueous Solubility", "setting": "[1]", "result": 28, "unit": "g/100 g"}, {"measurement": "Crystal Density", "setting": "[2]", "result": 1.495, "unit": "g/mL"}]}
{"molecule": "N[C@@H](CCC(=O)O)C(=O)O", "note": "[Glutamic Acid]", "values": [{"measurement": "Crystal Density", "setting": "[2]", "result": 1.566, "unit": "g/mL"}]}
{"molecule": "NC(=O)CC[C@H](N)C(=O)O", "note": "[Glutamine]", "values": [{"measurement": "Aqueous Solubility", "setting": "[1]", "result": 2.5, "unit": "g/100 g"}]}
{"molecule": "NCC(=O)O", "note": "[Glycine]", "values": [{"measurement": "Crystal Density", "setting": "[2]", "result": 1.598, "unit": "g/mL"}]}
{"molecule": "N[C@@H](Cc1c[nH]cn1)C(=O)O", "note": "[Histidine]", "values": [{"measurement": "Aqueous Solubility", "setting": "[1]", "result": 4.19, "unit": "g/100 g"}, {"measurement": "Crystal Density", "setting": "[2]", "result": 1.412, "unit": "g/mL"}]}
{"molecule": "CC[C@H](C)[C@H](N)C(=O)O", "note": "[Isoleucine]", "values": [{"measurement": "Aqueous Solubility", "setting": "[1]", "result": 4.117, "unit": "g/100 g"}, {"measurement": "Crystal Density", "setting": "[2]", "result": 1.201, "unit": "g/mL"}]}
{"molecule": "CC(C)C[C@H](N)C(=O)O", "note": "[Leucine]", "values": [{"measurement": "Aqueous Solubility", "setting": "[1]", "result": 2.426, "unit": "g/100 g"}]}
{"molecule": "NCCCC[C@H](N)C(=O)O", "note": "[Lysine]", "values": [{"measurement": "Aqueous Solubility", "setting": "[1]", "result": 30, "unit": "g/100 g"}, {"measurement": "Crystal Density", "setting": "[2]", "result": 1.237, "unit": "g/mL"}]}
{"molecule": "CSCC[C@H](N)C(=O)O", "note": "[Methionine]", "values": [{"measurement": "Aqueous Solubility", "setting": "[1]", "result": 3.381, "unit": "g/100 g"}, {"measurement": "Crystal Density", "setting": "[2]", "result": 1.311, "unit": "g/mL"}]}
{"molecule": "N[C@@H](Cc1ccccc1)C(=O)O", "note": "[Phenylalanine]", "values": [{"measurement": "Aqueous Solubility", "setting": "[1]", "result": 2.965, "unit": "g/100 g"}, {"measurement": "Crystal Density", "setting": "[2]", "result": 1.315, "unit": "g/mL"}]}
{"molecule": "O=C(O)[C@@H]1CCCN1", "note": "[Proline]", "values": [{"measurement": "Crystal Density", "setting": "[2]", "result": 1.376, "unit": "g/mL"}]}
{"molecule": "N[C@@H](CO)C(=O)O", "note": "[Serine]", "values": [{"measurement": "Crystal Density", "setting": "[2]", "result": 1.582, "unit": "g/mL"}]}
{"molecule": "C[C@@H](O)[C@H](N)C(=O)O", "note": "[Threonine]", "values": [{"measurement": "Crystal Density", "setting": "[2]", "result": 1.499, "unit": "g/mL"}]}
{"molecule": "N[C@@H](Cc1c[nH]c2ccccc12)C(=O)O", "note": "[Tryptophan]", "values": [{"measurement": "Aqueous Solubility", "setting": "[1]", "result": 1.136, "unit": "g/100 g"}, {"measurement": "Crystal Density", "setting": "[2]", "result": 1.303, "unit": "g/mL"}]}
{"molecule": "N[C@@H](Cc1ccc(O)cc1)C(=O)O", "note": "[Tyrosine]", "values": [{"measurement": "Crystal Density", "setting": "[2]", "result": 1.403, "unit": "g/mL"}]}
{"molecule": "CC(C)[C@H](N)C(=O)O", "note": "[Valine]", "values": [{"measurement": "Aqueous Solubility", "setting": "[1]", "result": 8.85, "unit": "g/100 g"}, {"measurement": "Crystal Density", "setting": "[2]", "result": 1.267, "unit": "g/mL"}]}
